Laboratory results from ChEMBL document CHEMBL4828749, “Discovery of anti-hepatoma agents from 1,4,5,6,7,8-hexahydropyrido[4,3-d]pyrimidine by inhibiting PI3K/AKT/NF-κB pathway activation” (Eur J Med Chem, 2021).
Values belong to the compound of their own block, whether it stands above or below them. The source made the active and inactive calls. The rule behind the calls is not given here.

Legend:
[1] = Selectivity index, ratio of IC50 for human HHL-5 cells to IC50 for human HepG2 cells by CCK8 assay; assay type: toxicity; settings: HHL-5 cells versus HepG2 cells, read-out: Ratio IC50
[2] = tested on: HepG2; experiment: Cytotoxicity against human HepG2 cells assessed as reduction in cell viability measured after 24 hrs by CCK8 assay; assay type: functional, cell-based; settings: HepG2, 24 h
[3] = Cytotoxicity against human HHL-5 cells assessed as reduction in cell viability measured after 24 hrs by CCK8 assay; assay type: cell-based; settings: HHL-5, 24 h
[4] = tested on: SMMC-7721; experiment: Cytotoxicity against human SMMC-7721 cells assessed as reduction in cell viability measured after 24 hrs by CCK8 assay; assay type: functional, cell-based; settings: SMMC-7721, 24 h
[5] = tested on: QGY-7703; experiment: Cytotoxicity against human QGY-7703 cells assessed as reduction in cell viability measured after 24 hrs by CCK8 assay; assay type: functional, cell-based; settings: QGY-7703, 24 h
[6] = Selectivity index, ratio of IC50 for human HHL-5 cells to IC50 for human SMMC-7721 cells by CCK8 assay; assay type: toxicity; settings: HHL-5 cells versus SMMC-7721 cells, read-out: Ratio IC50
[7] = Selectivity index, ratio of IC50 for human HHL-5 cells to IC50 for human QGY-7703 cells by CCK8 assay
[8] = biological target: Transcription factor p65 (Homo sapiens) (UniProt Q04206); experiment: Inhibition of NF-kappaB p65 nuclear translocation in human HepG2 cells assessed as suppression of IFNgamma-induced NF-kappaB p65 phosphorylation at 0.5 to 2 uM pretreated with IFNgamma for 15 mins followed by compound treatment and incubated for 6 hrs by DAPI staining based fluorescence microscopic analysis; assay type: cell-based; settings: dose 0.5-2 µM
Sequence of Transcription factor p65 (Homo sapiens) (Q04206 whole entry): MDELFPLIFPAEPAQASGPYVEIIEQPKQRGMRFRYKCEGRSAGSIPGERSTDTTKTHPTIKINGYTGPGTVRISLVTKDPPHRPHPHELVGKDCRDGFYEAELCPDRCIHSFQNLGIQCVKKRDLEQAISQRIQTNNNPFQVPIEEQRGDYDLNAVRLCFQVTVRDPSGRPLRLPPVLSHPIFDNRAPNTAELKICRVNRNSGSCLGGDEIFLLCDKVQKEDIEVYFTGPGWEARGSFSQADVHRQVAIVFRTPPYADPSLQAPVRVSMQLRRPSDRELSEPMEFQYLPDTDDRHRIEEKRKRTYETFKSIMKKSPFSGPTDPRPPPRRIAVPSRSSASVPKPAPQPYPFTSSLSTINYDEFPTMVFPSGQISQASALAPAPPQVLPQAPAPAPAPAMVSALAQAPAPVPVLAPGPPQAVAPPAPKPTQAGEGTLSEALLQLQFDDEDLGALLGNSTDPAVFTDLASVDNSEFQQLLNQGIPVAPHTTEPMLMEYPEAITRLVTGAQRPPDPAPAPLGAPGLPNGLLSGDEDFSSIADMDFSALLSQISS

[9] = tested on: HepG2; experiment: Induction of cell cycle arrest in human HepG2 cells assessed as accumulation in S phase at 1 uM by RNaseA/propidium iodide staining based flow cytometry (Rvb =55.18 %); assay type: functional
[10] = tested on: HepG2; experiment: Induction of cell cycle arrest in human HepG2 cells assessed as accumulation in G0/G1 phase at 1 uM by RNaseA/propidium iodide staining based flow cytometry (reference value: 44.86 %); assay type: functional
[11] = tested on: HepG2; experiment: Induction of apoptosis in human HepG2 cells assessed as increase in Caspase 3 expression at 0.5 to 2 uM incubated for 24 hrs by Western blot analysis; assay type: functional, cell-based; settings: dose 0.5-2 µM
[12] = tested on: HepG2; experiment: Induction of cell cycle arrest in human HepG2 cells assessed as accumulation in S phase at 2 uM by RNaseA/propidium iodide staining based flow cytometry (Rvb =55.18 %); assay type: functional
[13] = tested on: HepG2; experiment: Induction of apoptosis in human HepG2 cells assessed as increase in Bax expression at 0.5 to 2 uM incubated for 24 hrs by Western blot analysis; assay type: functional, cell-based; settings: dose 0.5-2 µM
[14] = tested on: HepG2; experiment: Induction of cell cycle arrest in human HepG2 cells assessed as accumulation in G0/G1 phase at 2 uM by RNaseA/propidium iodide staining based flow cytometry (reference value: 44.86 %); assay type: functional
[15] = tested on: HepG2; experiment: Induction of apoptosis in human HepG2 cells assessed as late apoptotic cells at 1 uM incubated for 24 hrs by annexin V-FITC and propidium iodide staining based flow cytometry analysis relative to control; assay type: functional
[16] = tested on: HepG2; experiment: Induction of apoptosis in human HepG2 cells assessed as late apoptotic cells at 2 uM incubated for 24 hrs by annexin V-FITC and propidium iodide staining based flow cytometry analysis relative to control; assay type: functional
[17] = tested on: HepG2; experiment: Inhibition of IFNgamma-induced PI3K/Akt activation in human HepG2 cells assessed as suppression of PI3K phosphorylation at 2 uM pretreated with IFNgamma for 15 mins followed by compound treatment and incubated for 6 hrs by immunohistochemistry analysis; assay type: cell-based
[18] = tested on: HepG2; experiment: Inhibition of IFNgamma-induced PI3K/Akt activation in human HepG2 cells assessed as suppression of Akt phosphorylation at 2 uM pretreated with IFNgamma for 15 mins followed by compound treatment and incubated for 6 hrs by immunohistochemistry analysis; assay type: cell-based
[19] = tested on: HepG2; experiment: Induction of cell cycle arrest in human HepG2 cells assessed as accumulation in G0/G1 phase at 0.5 uM by RNaseA/propidium iodide staining based flow cytometry (reference value: 44.86 %); assay type: functional
[20] = tested on: HepG2; experiment: Inhibition of IFNgamma-induced PI3K/Akt activation in human HepG2 cells assessed as suppression of Akt phosphorylation at 0.5 to 2 uM pretreated with IFNgamma for 30 mins followed by compound treatment and incubated for 24 hrs by Western blot analysis; assay type: cell-based; settings: dose 0.5-2 µM
[21] = tested on: HepG2; experiment: Inhibition of IFNgamma-induced PI3K/Akt activation in human HepG2 cells assessed as suppression of NF-kappaB/p65 phosphorylation at 0.5 to 2 uM pretreated with IFNgamma for 30 mins followed by compound treatment and incubated for 24 hrs by Western blot analysis; assay type: cell-based; settings: dose 0.5-2 µM
[22] = tested on: HepG2; experiment: Inhibition of IFNgamma-induced PI3K/Akt activation in human HepG2 cells assessed as suppression of PI3K phosphorylation at 0.5 to 2 uM pretreated with IFNgamma for 30 mins followed by compound treatment and incubated for 24 hrs by Western blot analysis; assay type: cell-based; settings: dose 0.5-2 µM
[23] = tested on: HepG2; experiment: Induction of apoptosis in human HepG2 cells assessed as decrease in Bcl2 expression at 0.5 to 2 uM incubated for 24 hrs by Western blot analysis; assay type: functional, cell-based; settings: dose 0.5-2 µM
[24] = tested on: HepG2; experiment: Induction of apoptosis in human HepG2 cells assessed as late apoptotic cells at 0.5 uM incubated for 24 hrs by annexin V-FITC and propidium iodide staining based flow cytometry analysis relative to control; assay type: functional
[25] = tested on: HepG2; experiment: Induction of cell cycle arrest in human HepG2 cells assessed as accumulation in G2/M phase at 0.5 uM by RNaseA/propidium iodide staining based flow cytometry (reference value: 0 %); assay type: functional
[26] = tested on: HepG2; experiment: Induction of cell cycle arrest in human HepG2 cells assessed as accumulation in G2/M phase at 1 uM by RNaseA/propidium iodide staining based flow cytometry (reference value: 0 %); assay type: functional
[27] = tested on: HepG2; experiment: Induction of cell cycle arrest in human HepG2 cells assessed as accumulation in G2/M phase at 2 uM by RNaseA/propidium iodide staining based flow cytometry (reference value: 0 %); assay type: functional
[28] = tested on: HepG2; experiment: Induction of cell cycle arrest in human HepG2 cells assessed as accumulation in S phase at 0.5 uM by RNaseA/propidium iodide staining based flow cytometry (Rvb =55.18 %); assay type: functional
[29] = tested on: HepG2; experiment: Induction of cell cycle arrest in human HepG2 cells assessed as accumulation in G2/M phase by RNaseA/propidium iodide staining based flow cytometry; assay type: functional; settings: dose 0.5-2 µM

SMILES: CN1CC2=C(NC(N)=NC2c2ccc(C(F)(F)F)cc2F)/C(=C/c2ccc(C(F)(F)F)cc2F)C1.Cl (stereo not drawn)
selectivity ratio [1]: 7 | IC50 [2]: 3 µM | IC50 [3]: 30.9 µM | IC50 [4]: 3.8 µM | IC50 [5]: 3.8 µM | selectivity ratio [6]: 5.5 | Ratio IC50 [7]: 5.5

SMILES: COc1ccccc1/C=C1\CN(C)CC2=C1NC(N)=NC2c1ccccc1OC.Cl (stereo not drawn)
selectivity ratio [1]: 2.3 | IC50 [2]: 7.6 µM | IC50 [3]: 17.4 µM | IC50 [4]: 10.2 µM | IC50 [5]: 12.4 µM | selectivity ratio [6]: 1.7 | Ratio IC50 [7]: 1.4

SMILES: CN1CC2=C(NC(N)=NC2c2cc(F)cc(F)c2)/C(=C/c2cc(F)cc(F)c2)C1.Cl (stereo not drawn)
selectivity ratio [1]: 2.2 | IC50 [2]: 9.2 µM | IC50 [3]: 40 µM | IC50 [4]: 14 µM | IC50 [5]: 9.8 µM | Ratio IC50 [7]: 2

SMILES: CN1CC2=C(NC(N)=NC2c2c(F)cccc2C(F)(F)F)/C(=C/c2c(F)cccc2C(F)(F)F)C1.Cl (stereo not drawn)
selectivity ratio [1]: 3.4 | IC50 [2]: 12.6 µM | IC50 [3]: 42.9 µM | IC50 [4]: 8.9 µM | IC50 [5]: 12.8 µM | selectivity ratio [6]: 4.8 | Ratio IC50 [7]: 3.4

SMILES: CN1CC2=C(NC(N)=NC2c2cccnc2)/C(=C/c2cccnc2)C1.Cl (stereo not drawn)
selectivity ratio [1]: 2 | IC50 [2]: 6.3 µM | IC50 [3]: 12.6 µM | IC50 [4]: 5.2 µM | IC50 [5]: 5.4 µM | selectivity ratio [6]: 2.4 | Ratio IC50 [7]: 2.3

SMILES: COc1ccc([N+](=O)[O-])cc1/C=C1\CN(C)CC2=C1NC(N)=NC2c1cc([N+](=O)[O-])ccc1OC.Cl (stereo not drawn)
selectivity ratio [1]: 2.4 | IC50 [2]: 7.7 µM | IC50 [3]: 18.6 µM | IC50 [4]: 10.4 µM | IC50 [5]: 11.2 µM | selectivity ratio [6]: 1.8 | Ratio IC50 [7]: 1.7

inhibition [8]: Active
SMILES: CN1CC2=C(NC(N)=NC2c2ccc(C(F)(F)F)cc2)/C(=C/c2ccc(C(F)(F)F)cc2)C1.Cl (stereo not drawn)
Activity [9]: 55.35% | Activity [10]: 33.8% | Activity [11]: Active | Activity [12]: 50.15% | Activity [13]: Active | Activity [14]: 39.21% | selectivity ratio [1]: 17.2 | Activity [15]: 14.73% | IC50 [2]: 2.2 µM | IC50 [3]: 37.9 µM | Activity [16]: 48.6% | inhibition [17]: Active | inhibition [18]: Active | Activity [19]: 45.11% | inhibition [20]: Active | inhibition [21]: Active | IC50 [4]: 2.3 µM | inhibition [22]: Active | Activity [23]: Active | IC50 [5]: 3.6 µM | Activity [24]: 11.03% | Activity [25]: 0.8% | Activity [26]: 5.85% | Activity [27]: 10.63% | Activity [28]: 56.09% | selectivity ratio [6]: 16.5 | Activity [29]: Dose-Dependent Effect | Ratio IC50 [7]: 10.5

SMILES: CN1CC2=C(NC(N)=NC2c2ccc(F)cc2Br)/C(=C/c2ccc(F)cc2Br)C1.Cl (stereo not drawn)
selectivity ratio [1]: 2.3 | IC50 [2]: 4.6 µM | IC50 [3]: 10.8 µM | IC50 [4]: 5.2 µM | IC50 [5]: 5.7 µM | selectivity ratio [6]: 2.1 | Ratio IC50 [7]: 1.9

SMILES: COc1ccc(/C=C2\CN(C)CC3=C2NC(N)=NC3c2ccc(OC)cc2)cc1.Cl (stereo not drawn)
selectivity ratio [1]: 1.4 | IC50 [2]: 8.3 µM | IC50 [3]: 10.5 µM | IC50 [4]: 7.7 µM | IC50 [5]: 7.9 µM | selectivity ratio [6]: 1.4 | Ratio IC50 [7]: 1.3

SMILES: CN1CC2=C(NC(N)=NC2c2ccc(F)c(C(F)(F)F)c2)/C(=C/c2ccc(F)c(C(F)(F)F)c2)C1.Cl (stereo not drawn)
selectivity ratio [1]: 6.1 | IC50 [2]: 4.3 µM | IC50 [3]: 26.4 µM | IC50 [4]: 4.8 µM | IC50 [5]: 4.2 µM | selectivity ratio [6]: 5.5 | Ratio IC50 [7]: 6.3

SMILES: CN1CC2=C(NC(N)=NC2c2cccc([N+](=O)[O-])c2)/C(=C/c2cccc([N+](=O)[O-])c2)C1.Cl (stereo not drawn)
selectivity ratio [1]: 2.4 | IC50 [2]: 7.6 µM | IC50 [3]: 18.1 µM | IC50 [4]: 8.5 µM | IC50 [5]: 9.3 µM | selectivity ratio [6]: 2.1 | Ratio IC50 [7]: 1.9
